Values joined by “and” are separate entries in the source; they are usually repeats but may differ in a detail not shown here. Equal values may be shown once. Toxic doses and inconclusive results are not listed. Rule for the calls: active = survival T/C of 150% or more; inactive = T/C below 125% in these data.
System: CD2F1 mice, L1210 leukemia ip, survival T/C
Test: NCI In Vivo Anticancer Drug Screen. Data for tumor model L1210 Leukemia (intraperitoneal) in CD2F1 (CDF1) mice
Settings: endpoint: mean survival time, higher = longer survival
Procedure: The antitumor activity of compounds was measured in mice bearing transplantable tumors. Survival or tumor size were measured and the results are expressed as the measurement made in the treated group (T) divided by the measurement made in the vehicle treated control group (C). The tumor model used in this assay is L1210 Leukemia (intraperitoneal) in CD2F1 (CDF1) mice

[1] = dose: 100.0 mg/kg/injection, schedule: Q01DX001 (ip), vehicle: saline with Tween-80
[2] = dose: 100.0 mg/kg/injection, schedule: Q01DX009 (ip), vehicle: saline with Tween-80
[3] = dose: 100.0 mg/kg/injection, schedule: Q04DX003 (ip), vehicle: saline with Tween-80
[4] = dose: 200.0 mg/kg/injection, schedule: Q01DX001 (ip), vehicle: saline with Tween-80
[5] = dose: 200.0 mg/kg/injection, schedule: Q01DX009 (ip), vehicle: saline with Tween-80
[6] = dose: 200.0 mg/kg/injection, schedule: Q04DX003 (ip), vehicle: saline with Tween-80
[7] = dose: 400.0 mg/kg/injection, schedule: Q01DX001 (ip), vehicle: saline with Tween-80
[8] = dose: 400.0 mg/kg/injection, schedule: Q04DX003 (ip), vehicle: saline with Tween-80
[9] = dose: 50.0 mg/kg/injection, schedule: Q01DX009 (ip), vehicle: saline with Tween-80

Measured: T/C

C/C(=C\C(=O)Nc1ccc(S(=O)(=O)F)cc1)c1ccc([N+](=O)[O-])cc1
inactive: dose: 25.0 mg/kg/injection, schedule: Q04DX002 (ip), vehicle: saline with Tween-80 103 % of control and 104 % of control | dose: 50.0 mg/kg/injection, schedule: Q04DX002 (ip), vehicle: saline with Tween-80 96 % of control and 102 % of control | [1] 97 % of control | [2] 104 % of control and 106 % of control | dose: 100.0 mg/kg/injection, schedule: Q04DX002 (ip), vehicle: saline with Tween-80 100 % of control (2×) and 104 % of control | [3] 104 % of control | [4] 92 % of control | [5] 96 % of control | dose: 200.0 mg/kg/injection, schedule: Q04DX002 (ip), vehicle: saline with Tween-80 96 % of control and 102 % of control and 107 % of control | [6] 101 % of control | [7] 95 % of control | dose: 400.0 mg/kg/injection, schedule: Q01DX009 (ip), vehicle: saline with Tween-80 96 % of control and 100 % of control | dose: 400.0 mg/kg/injection, schedule: Q04DX002 (ip), vehicle: saline with Tween-80 98 % of control | [8] 93 % of control

CCOC(=O)Nc1cc(Nc2ccccc2)c(N)c(N)n1
inactive: dose: 100.0 mg/kg/injection, schedule: Q01DX001 (ip), vehicle: saline 88 % of control | dose: 200.0 mg/kg/injection, schedule: Q01DX001 (ip), vehicle: saline 94 % of control

C=CCOc1c(C)cc(C)cc1/C=C/C
inactive: [2] 94 % of control | [5] 89 % of control

COc1ccc(P(c2ccc(OC)cc2)c2ccc(OC)cc2)cc1
inactive: dose: 50.0 mg/kg/injection, schedule: Q04DX003 (ip), vehicle: saline with Tween-80 97 % of control | [3] 96 % of control | [6] 91 % of control

NC(=S)N/N=C/c1ccc2c(c1)OCO2
inactive: [9] 98 % of control | [2] 110 % of control | [5] 98 % of control

O=C(Nc1ccccc1)c1ccccc1C(O)(c1ccccc1)c1ccc(Cl)cc1 (stereo not given)
inactive: [3] 95 % of control | [6] 95 % of control | [8] 97 % of control

N#CSCc1ccc(Cl)cc1
inactive: dose: 6.25 mg/kg/injection, schedule: Q01DX009 (ip), vehicle: saline with Tween-80 98 % of control | dose: 12.5 mg/kg/injection, schedule: Q01DX009 (ip), vehicle: saline with Tween-80 96 % of control | dose: 25.0 mg/kg/injection, schedule: Q01DX009 (ip), vehicle: saline with Tween-80 106 % of control

NNc1nc(=O)[nH]nc1SCc1ccccc1
inactive: dose: 75.0 mg/kg/injection, schedule: Q01DX001 (ip), vehicle: saline 96 % of control | dose: 150.0 mg/kg/injection, schedule: Q01DX001 (ip), vehicle: saline 88 % of control

Nc1ccc(CSc2ccccc2)cc1F
inactive: [3] 93 % of control | [6] 92 % of control | [8] 108 % of control

Nc1ncn[nH]1
inactive: dose: 200.0 mg/kg/injection, schedule: Q01DX009 (ip), vehicle: Klucel (hydroxypropylcellulose) (HPC) 95 % of control | dose: 400.0 mg/kg/injection, schedule: Q01DX009 (ip), vehicle: Klucel (hydroxypropylcellulose) (HPC) 106 % of control

CC(=O)OC(CC(=O)CC(OC(C)=O)(C(F)(F)F)C(F)(F)F)(C(F)(F)F)C(F)(F)F
inactive: dose: 100.0 mg/kg/injection, schedule: Q01DX009 (ip), vehicle: saline 100 % of control | dose: 200.0 mg/kg/injection, schedule: Q01DX009 (ip), vehicle: saline 97 % of control | dose: 400.0 mg/kg/injection, schedule: Q01DX009 (ip), vehicle: saline 103 % of control

ClC1=CCCCC1
inactive: dose: 100.0 mg/kg/injection, schedule: Q04DX003 (ip), vehicle: acetone 102 % of control

COc1cc(Cl)ccc1NC(=O)Oc1ccc(Br)cc1
inactive: [9] 92 % of control | [2] 96 % of control | [5] 87 % of control

C(=N\Nc1nc2ccccc2s1)/c1ccc(/C=N/Nc2nc3ccccc3s2)cc1
inactive: dose: 100.0 mg/kg/injection, schedule: Q04DX003 (ip), vehicle: Klucel (hydroxypropylcellulose) (HPC) 92 % of control | dose: 200.0 mg/kg/injection, schedule: Q04DX003 (ip), vehicle: Klucel (hydroxypropylcellulose) (HPC) 92 % of control | dose: 400.0 mg/kg/injection, schedule: Q04DX003 (ip), vehicle: Klucel (hydroxypropylcellulose) (HPC) 94 % of control

O=c1c2ccccc2sc2ccc3ccccc3c12
inactive: [1] 106 % of control | [4] 101 % of control | [7] 101 % of control
